Reference: PubChem BioAssay (NCI)
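Tested at 5 concentrations; 48 h exposure; 96-well plates; endpoints linearly interpolated, else capped at highest concentration. At the GI50, growth is halved. TGI is the concentration that stops growth completely.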

How the values were obtained:
Assay in all cases: NCI tumour cell line growth inhibition, 48 h
LOX IMVI melanoma = system: LOX IMVI melanoma
K-562 leukemia = system: K-562 leukemia
EKVX NSCLC = system: EKVX NSCLC
UO-31 renal = system: UO-31 renal
786-0 renal = system: 786-0 renal
SF-295 CNS = system: SF-295 CNS
A498 renal = system: A498 renal
MALME-3M melanoma = system: MALME-3M melanoma
HT29 colon = system: HT29 colon
SF-539 CNS = system: SF-539 CNS

Row | SMILES | TGI (LOX IMVI melanoma) | TGI (K-562 leukemia) | TGI (EKVX NSCLC) | TGI (UO-31 renal) | TGI (786-0 renal) | TGI (SF-295 CNS) | TGI (A498 renal) | TGI (MALME-3M melanoma) | TGI (HT29 colon) | TGI (SF-539 CNS) | GI50 (LOX IMVI melanoma) | GI50 (K-562 leukemia) | GI50 (EKVX NSCLC) | GI50 (UO-31 renal) | GI50 (786-0 renal) | GI50 (SF-295 CNS) | GI50 (A498 renal) | GI50 (HT29 colon) | GI50 (SF-539 CNS) | GI50 (MALME-3M melanoma)
1 | COc1cc2c(OC)c(c1)CCCC1=CC(=O)C=C(CCC2)C1=O | 31.1 µM | 34.6 µM | > 87.4 µM | > 100 µM | > 55.1 µM | > 100 µM | > 100 µM | 75.8 µM | > 100 µM | > 69.4 µM |  |  |  |  |  |  |  |  |  | 
2 | O=C(CNC(=O)c1cccc2ccccc12)Nc1ccccc1Oc1ccccc1 | > 10 µM | > 10 µM | > 10 µM | > 10 µM | > 10 µM | > 10 µM | > 10 µM | > 10 µM | 1.07 µM | 0.695 µM | 0.307 µM | 0.0704 µM | 0.778 µM | 0.643 µM | 0.449 µM | 0.25 µM | 0.256 µM | 0.29 µM | 0.237 µM | 
3 | CCS(=O)(=O)c1ccc(OC)c(Nc2nccc(N(C)c3ccc4c(C)[nH]nc4c3)n2)c1 | 12 µM | 16.8 µM | > 25 µM | 10.9 µM | 18.4 µM | 10.4 µM | 6.58 µM | > 25 µM | 16.4 µM | 9.86 µM | 4.29 µM | 2.79 µM | 6.85 µM | 2.05 µM | 5.79 µM | 4.17 µM | 1.18 µM | 5.66 µM | 4.17 µM | 8.48 µM
4 | COc1cc(-c2cn(-c3ccc(Cl)cc3)c(=O)[nH]2)cc(OC)c1OC | > 100 µM | > 100 µM | > 100 µM | > 100 µM | > 100 µM | > 100 µM | > 100 µM | > 100 µM | > 100 µM | > 100 µM | > 100 µM | 52.1 µM | > 100 µM | > 100 µM | > 100 µM | > 100 µM | > 100 µM | > 100 µM | > 100 µM | > 100 µM
5 | CCC(C)/C=C(C)/C=C/C(=O)c1c(O)c(-c2ccc(O)cc2)c[nH]c1=O (centres undefined) | 13.2 µM | 15.1 µM | 17.6 µM | 14.3 µM | 16.7 µM | 13.7 µM | 16.4 µM | 14.1 µM | 14.6 µM | 12.5 µM | 3.49 µM | 3.39 µM | 4.08 µM | 2.16 µM | 4.33 µM | 2.89 µM | 2.03 µM | 3.77 µM | 3.3 µM | 2.36 µM
6 | CCc1ccc(CCC(=O)Nc2ncc(Cc3ccccc3)s2)o1 | > 100 µM | > 100 µM | > 100 µM | > 100 µM | > 100 µM | > 100 µM | 8.87 µM | > 100 µM | > 100 µM | 4.46 µM | 6 µM | 0.529 µM | 4.6 µM | 3.19 µM | 6.95 µM | 3.29 µM | 1.29 µM | 1.02 µM | 1.67 µM | 18.3 µM
7 | Cc1ccc(NS(=O)(=O)c2cc(C)ccc2C)cc1 | 22.5 µM | 29.4 µM | 92.7 µM | 72 µM | 31.4 µM | 19.8 µM | 15.4 µM | 38.6 µM | 12.3 µM | 15.1 µM | 5.13 µM | 0.761 µM | 11.8 µM | 12.1 µM | 10.6 µM | 2.62 µM | 2.54 µM | 2.84 µM | 4.21 µM | 5.36 µM
8 | Cc1cc(-c2nc3ccc(O)cc3s2)ccc1N | > 100 µM | > 100 µM | 58.3 µM | > 100 µM | > 100 µM | > 100 µM | > 100 µM | > 100 µM | > 100 µM |  | > 100 µM | 36.4 µM | 4.07 µM | 21.6 µM | 29.2 µM | 31.5 µM | 41.3 µM | 37.5 µM |  | 82.8 µM
9 | Cn1c2ccc([N+](=O)[O-])cc2c(=O)c2c(O)cc(O)cc21 | > 100 µM | > 100 µM | > 100 µM | > 100 µM | 47 µM | 33.8 µM | > 100 µM | 64.6 µM |  | 55.2 µM |  |  |  |  |  |  |  |  |  | 
10 | CCOC(=O)C#Cc1ccc(C#CC(=O)OCC)cc1 | > 22.1 µM |  | > 24.7 µM |  | > 27.9 µM | > 32.1 µM | > 51.5 µM | 21.3 µM | 5.27 µM | > 47.5 µM |  |  |  |  |  |  |  |  |  | 
